For 15 molecules, EC50 and Emax results are on record in patent US8618154B2, “LXR modulators” (Bristol-Myers Squibb Company, priority 2009, dated 2013).

For this assay, the target named is T1, LXRα (Homo sapiens, UniProt Q13133).
T1 construct: Co-transfection expression plasmids, comprising full-length LXRα (pCMX-h LXRα); expressed in transfected cells; host or cells: CV-1 African green monkey kidney cells, transient transfection with FuGENE6
T1 sequence (Q13133 1-447): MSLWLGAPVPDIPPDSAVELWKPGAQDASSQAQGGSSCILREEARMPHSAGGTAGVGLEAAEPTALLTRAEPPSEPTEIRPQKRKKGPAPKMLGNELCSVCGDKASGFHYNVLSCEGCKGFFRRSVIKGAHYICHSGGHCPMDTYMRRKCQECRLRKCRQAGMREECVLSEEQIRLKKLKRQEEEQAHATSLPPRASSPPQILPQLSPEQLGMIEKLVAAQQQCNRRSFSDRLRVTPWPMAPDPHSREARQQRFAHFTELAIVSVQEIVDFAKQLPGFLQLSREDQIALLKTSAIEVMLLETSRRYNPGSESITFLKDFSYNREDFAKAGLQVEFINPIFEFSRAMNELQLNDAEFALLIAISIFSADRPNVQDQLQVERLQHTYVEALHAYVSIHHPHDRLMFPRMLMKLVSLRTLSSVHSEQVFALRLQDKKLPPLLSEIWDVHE
T1 sequence (P19793 1-462 partner): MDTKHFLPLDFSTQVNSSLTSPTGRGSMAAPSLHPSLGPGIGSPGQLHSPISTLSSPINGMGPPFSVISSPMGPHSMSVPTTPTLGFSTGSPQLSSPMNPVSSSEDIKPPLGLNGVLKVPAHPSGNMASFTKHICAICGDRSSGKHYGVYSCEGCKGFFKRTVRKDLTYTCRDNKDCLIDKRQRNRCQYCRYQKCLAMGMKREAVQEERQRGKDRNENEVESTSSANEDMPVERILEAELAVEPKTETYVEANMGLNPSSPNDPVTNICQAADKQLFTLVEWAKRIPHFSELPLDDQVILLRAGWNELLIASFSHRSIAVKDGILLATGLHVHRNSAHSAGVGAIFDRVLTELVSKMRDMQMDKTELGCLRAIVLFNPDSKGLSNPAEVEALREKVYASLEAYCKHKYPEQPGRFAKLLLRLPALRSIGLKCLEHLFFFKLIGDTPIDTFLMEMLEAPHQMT
The assay is described as follows: LXR/LXRE co-transfection assay (LXRα). The class given is cell-based. The settings on record: for EC50: CV-1 cells, LXRE luciferase reporter; for Emax: read-out: LXRα Eff (%). An excerpt:
To measure the ability of compounds to activate or inhibit the transcriptional activity of LXR in a cell based assay, the co-transfection assay was used. It has been shown that LXR functions as a heterodimer with RXR. For the co-transfection assay, expression plasmids for LXRα and LXRβ are introduced separately via transient transfection into mammalian cells along with a luciferase reporter plasmid that contains one copy of a DNA sequence that is bound by LXR-RXR heterodimers (LXRE; Willy, P. et. al. 1995). LXRs heterodimerize with the endogenous RXR. Treatment of transfected cells with an LXR agonist increases the transcriptional activity of LXR, which is measured by an increase in luciferase activity.
Co-transfection expression plasmids, comprising full-length LXRα (pCMX-h LXRα or LXRβ (pCMX-hLXRβ), reporter plasmid (LXREx1-Tk-Luciferase), and control (pCMX-Galactosidase expression vector) (Willey et al. Genes & Development 9 1033-1045 (1995)).
CV-1 cells were prepared 24 hours prior to the experiment by plating them into T-175 flasks or 500 cm^2 dishes in order to achieve 70-80% confluency on the day of the transfection. The number of cells to be transfected was determined by the number of plates to be screened. Each well of a 384 well plate requires ˜8000 cells. DNA Transfection Reagent was prepared by mixing the required plasmid DNAs with a cationic lipid transfection reagent FuGENE6 (Roche) by following the instructions provided with the reagents. Optimal DNA amounts were determined empirically per cell line and size of vessel to be transfected. For each T175 cm^2 flask a total of 20 μg of DNA, 60 μl of Fugene 6 and 1 ml of Optimem was mixed and added. Cells were then incubated at least 5 hours at 37° C. to prepare screening cells.
Assay plates were prepared by dispensing 5 μL, of compound per well of a 384 well plate to achieve final compound concentration of 10 μM and no more than 0.5% DMSO. Media was removed from the screening cells, the cells trypsinized, harvested cells by centrifugation, counted, and plated at a density of approximately 8000 cells per well in the 384 well assay plate prepared above in a volume of about 45 μL. Assay plates containing both compounds and screening cells (50 μL, in total volume) were incubated for 20 hours at 37° C.
After incubation with compounds, media was removed from the cells and luciferase assay reagent (30 μL/well) added. After ˜2 minutes at ambient temperature, the assay plates were read on a luminometer (PE Biosystems Northstar reader with on-board injectors, or equivalent).
The LXR/LXRE co-transfection assay can be used to establish the EC50/IC50 values for potency and percent activity or inhibition for efficacy. Efficacy defines the activity of a compound relative to a high control ((N-(3-((4-fluorophenyl)-(naphthalene-2-sulfonyl)amino)propyl)-2,2-dimethylpropionamide)) or a low control (DMSO/vehicle). The dose response curves are generated from a 10 point curve with concentrations differing by ½ LOG units.
The data from this assay is fitted to the following equation, from which the EC50 value may be solved: Y=Bottom+(Top−Bottom)/(1+10^((logEC50-X)*HillSlope)).
The EC50/IC50 is therefore defined as the concentration at which an agonist or antagonist elicits a response that is half way between the Top (maximum) and Bottom (baseline) values. The EC50/IC50 values represented are the averages of at least 2 and normally 3 independent experiments. The determination of the relative efficacy or % control for an agonist is by comparison to the maximum response achieved by ((N-(3-((4-fluorophenyl)-(naphthalene-2-sulfonyl)-amino)propyl)-2,2-dimethylpropionamide) that is measured individually in each dose response experiment.
In general terms: In a reporter assay the amount or activity of a reporter protein is the signal.

Where [1] appears, read: efficacy relative to high control N-(3-((4-fluorophenyl)-(naphthalene-2-sulfonyl)amino)propyl)-2,2-dimethylpropionamide.

Like-named read-outs stand apart in the source and are kept apart here.

As to `CC(C)(O)c1cn(-c2ccc(-c3cc(F)c(CO)c(S(C)(=O)=O)c3)cc2)c(C(C)(C)c2ccccc2F)n1` [Example 1, 2-(1-(3′-fluoro-4′-(hydroxymethyl)-5′-(methylsulfonyl)biphenyl-4-yl)-2-(2-(2-fluorophenyl)propan-2-yl)-1H-imidazol-4-yl)propan-2-ol], the EC50 (as a rule, the concentration at which the effect is half-maximal) is 101 to 1000 nM. In addition, the Emax under setting [1] is 13%.

Take `CC(C)(O)c1cn(-c2ccc(-c3cc(F)c(CO)c(S(C)(=O)=O)c3)cc2F)c(Cc2ccc(F)cc2Cl)n1` [Example 14, 2-(2-(2-chloro-4-fluorobenzyl)-1-(3,3′-difluoro-4′-(hydroxymethyl)-5′-(methylsulfonyl)biphenyl-4-yl)-1H-imidazol-4-yl)propan-2-ol]: the EC50 was under 100 nM. Under setting [1], the Emax stood at 15%. In turn, `CC(C)(O)c1cn(-c2ccc(-c3cc(F)c(CO)c(S(C)(=O)=O)c3)cc2F)c(C(C)(C)c2ccccc2Cl)n1` [Example 6, 2-(2-(2-(2-Chloro-phenyl)propan-2-yl)-1-(3,3′-difluoro-4′-hydroxymethyl-5′-(methylsulfonyl)biphenyl-4-yl)-1H-imidazol-4-yl)-propan-2-ol] registered an EC50 of under 100 nM. The Emax under setting [1] worked out at 25%. With `CC(C)(O)c1cn(-c2ccc(-c3cc(F)c(CO)c(S(C)(=O)=O)c3)cc2F)c(Cc2ccc(Cl)cc2Cl)n1` [Example 11, 2-(2-(2,4-dichlorobenzyl)-1-(3,3′-difluoro-4′-(hydroxymethyl)-5′-(methylsulfonyl)biphenyl-4-yl)-1H-imidazol-4-yl)propan-2-ol], the 50% effective concentration (EC50) is over 1000 nM.

For the molecule `CC(c1c(Cl)cccc1Cl)c1nc(C(C)(C)O)cn1-c1ccc(-c2cc(F)c(CO)c(S(C)(=O)=O)c2)cc1F` (centres unmarked) [Example 21, 2-{2-[1-(2,6-dichlorophenyl)ethyl]-1-[3,3′-difluoro-4′-(hydroxymethyl)-5′-(methylsulfonyl)biphenyl-4-yl]-1H-imidazol-4-yl}propan-2-ol], the EC50 is under 100 nM and the Emax worked out at 18%. `CC(C)(O)c1cn(-c2ccc(-c3cccc(S(C)(=O)=O)c3)cc2)c(C(C)(C)c2ccccc2Cl)n1` [Compound No. 19, Table 1, WO 2007/002563, reference compound]: the EC50 lay in the range of 101 to 1000 nM. Further, the Emax under setting [1] amounted to 38%. `CC(C)(O)c1cn(-c2ccc(-c3cc(F)c(CO)c(S(C)(=O)=O)c3)cc2F)c(Cc2ccccc2Cl)n1` [Example 20, 2-[2-(2-Chloro-benzyl)-1-(3,3′-difluoro-4′-hydroxymethyl-5′-methanesulfonyl-biphenyl-4-yl)-1H-imidazol-4-yl]-propan-2-ol]: the EC50 is 101 to 1000 nM. Moreover, the Emax under setting [1] amounted to 15%. The matching figures for `CC(C)(O)c1cn(-c2ccc(-c3cc(F)c(CO)c(S(C)(=O)=O)c3)cc2Cl)c(C(C)(C)c2c(Cl)cccc2Cl)n1` [Example 3, 2-(1-(3-chloro-3′-fluoro-4′-(hydroxymethyl)-5′-(methylsulfonyl)biphenyl-4-yl)-2-(2-(2,6-dichlorophenyl)propan-2-yl)-1H-imidazol-4-yl)propan-2-ol]: under 100 nM and 6%. The like results for `CC(C)(O)c1cn(-c2ccc(-c3cc(F)c(CO)c(S(C)(=O)=O)c3)cc2)c(C(C)(C)c2c(Cl)cccc2Cl)n1` [Example 5, 2-(2-(2-(2,6-dichlorophenyl)propan-2-yl)-1-(3′-fluoro-4′-(hydroxymethyl)-5′-(methylsulfonyl)biphenyl-4-yl)-1H-imidazol-4-yl)propan-2-ol] were, in that order, under 100 nM and 25%.

In turn, `CC(C)(O)c1cn(-c2ccc(-c3cc(F)c(CO)c(S(C)(=O)=O)c3)cc2)c(Cc2c(Cl)cccc2Cl)n1` [Example 18, 2-(2-(2,6-dichlorobenzyl)-1-(3′-fluoro-4′-(hydroxymethyl)-5′-(methylsulfonyl)biphenyl-4-yl)-1H-imidazol-4-yl)propan-2-ol] gave an EC50 of under 100 nM. Under setting [1], the Emax is 17%.

In turn, `Cc1cc(-c2cc(F)c(CO)c(S(C)(=O)=O)c2)ccc1-n1cc(C(C)(C)O)nc1C(C)(C)c1c(F)cccc1Cl` [Example 2, 2-(2-(2-(2-chloro-6-fluorophenyl)propan-2-yl)-1-(3′-fluoro-4′-(hydroxymethyl)-3-methyl-5′-(methylsulfonyl)biphenyl-4-yl)-1H-imidazol-4-yl)propan-2-ol] gave an EC50 of under 100 nM. For the same molecule, the Emax under setting [1] was found to be 10%. The like results for `CC(C)(O)c1cn(-c2ccc(-c3cc(F)c(CO)c(S(C)(=O)=O)c3)cc2F)c(C(C)(C)c2ccccc2F)n1` [Example 8, 2-{1-(3,3′-Difluoro-4′-hydroxymethyl-5′-methanesulfonyl-biphenyl-4-yl)-2-[2-(2-fluorophenyl)propan-2-yl]-1H-imidazol-4-yl}-propan-2-ol] were, in that order, under 100 nM and 10%.

The molecule `CC(C)(O)c1cn(-c2ccc(-c3cc(F)c(CO)c(S(C)(=O)=O)c3)cc2)c(Cc2ccc(Cl)cc2Cl)n1` [Example 15, 2-(2-(2,4-dichlorobenzyl)-1-(3′-fluoro-4′-(hydroxymethyl)-5′-(methylsulfonyl)biphenyl-4-yl)-1H-imidazol-4-yl)propan-2-ol] registered an EC50 of under 100 nM. For the same molecule, the Emax under setting [1] is 8%. The like results for `CC(C)(O)c1cn(-c2ccc(-c3cc(F)c(CO)c(S(C)(=O)=O)c3)cc2Cl)c(Cc2ccc(F)cc2Cl)n1` [Example 13, 2-(1-(3-chloro-3′-fluoro-4′-(hydroxymethyl)-5′-(methylsulfonyl)biphenyl-4-yl)-2-(2-chloro-4-fluorobenzyl)-1H-imidazol-4-yl)propan-2-ol] were, in that order, under 100 nM and 18%. The matching figures for `CC(C)(O)c1cn(-c2ccc(-c3cc(F)c(CO)c(S(C)(=O)=O)c3)cc2F)c(C(C)(C)c2c(F)cccc2Cl)n1` [Example 7, 2-(2-(2-(2-chloro-6-fluorophenyl)propan-2-yl)-1-(3,3′-difluoro-4′-(hydroxymethyl)-5′-(methylsulfonyl)biphenyl-4-yl)-1H-imidazol-4-yl)propan-2-ol]: under 100 nM and 15%.
